Source: US20150315218A1, “SALTS OF PRODRUGS OF PIPERAZINE AND SUBSTITUTED PIPERIDINE ANTIVIRAL AGENTS” (Bristol-Myers Squibb Company, priority 2004, published 2015)
Read-outs that look alike come from different tables or passages of the source.

Assays:
[1] = IV and PO pharmacokinetic studies of prodrug salts (Iab, Ibb, Icb) in the rat, with historical parent data; format: in vivo, Sprague-Dawley rats
Procedure: All blood samples (0.3 mL) were colleted in microtainers containing K2EDTA (Becton Dickinson, Franklin Lakes, N.J.) and placed on chipped ice. After centrifugation, plasma was separated and stored at −20° C. until analysis. The mono-lysine salt of Iab (Form 3, Lot 1) was used for the pharmacokinetic studies. The dosing solutions of Iab were prepared in either sterile water (for IV administration in dogs and monkeys) or distilled water (for all other dose administration).
Male Sprague-Dawley rats (300-350 g, Hilltop Lab Animals, Inc., Scottsdale, Pa.) with cannulas implanted in the jugular vein were used. The rats were fasted overnight in the PO pharmacokinetic studies. Blood samples were collected from the jugular vein.
In the IV study, Iab was delivered at 1.4 mg/kg (free acid, or 1.1 mg/kg of IVa equivalent) as a bolus over 0.5 min (n=3).
In the PO study, Iab was administered at 7.9 mg/kg (free acid, or 6.3 mg/kg of IVa equivalent) by oral gavage (n=3). The concentration of the dosing solution was 4.0 mg/mL, and the dosing volume was 2 mL/kg.
The pharmacokinetic parameters of Iab and IVa were calculated by Non-Compartmental Analysis using the […]™ software program (version 4.0.2, InnaPhase Co., Philadelphia, Pa.). The Cmax and Tmax values were recorded directly from experimental observations. The AUC0-n and AUCtot values were calculated using the mixed log-linear trapezoidal summations. The total body clearance (Cl), mean residence time (MRT), and the steady state volume of distribution (Vss) were also calculated after intravenous administration. The absolute oral bioavailability (expressed as %) was estimated by taking the ratio of dose-normalized AUC values after oral doses to those after intravenous doses.
All blood samples (0.3 mL) were colleted in microtainers containing K2EDTA (Becton Dickinson, Franklin Lakes, N.J.) and placed on chipped ice. After centrifugation, plasma was separated and stored at −20° C. until analysis. The mono-lysine salt of Ibb (Form 3) was used for the pharmacokinetic studies. The dosing solutions of Ibb were prepared in either sterile water (for IV administration in dogs and monkeys) or distilled water (for all other dose administration).
(§1) The Cmax and Tmax values were recorded directly from experimental observations. The AUC0-n and AUCtot values were calculated using the mixed log-linear trapezoidal summations. The total body clearance (Cl), mean residence time (MRT), and the steady state volume of distribution (Vss) were also calculated after intravenous administration. The absolute oral bioavailability (expressed as %) was estimated by taking the ratio of dose-normalized AUC values after oral doses to those after intravenous doses.
In the IV study, Icb was delivered at 1.4 mg/kg (free acid, or 1.1 mg/kg of IVe equivalent) as a bolus over 0.5 min (n=3).
In the PO study, Icb was administered at 6.9 mg/kg (free acid, or 5.6 mg/kg of IVe equivalent) by oral gavage (n=3).
as §1

[2] = Single-dose toxicokinetic and tolerability study of prodrugs in dogs; format: in vivo, dog; settings: for AUC(0-inf) / concentration at 24 h / Cmax: dog, plasma; for concentration at 24 h: read-out: C24h
Procedure: A multi-phase study was conducted to evaluate the tolerability of the prodrug, Iab (monolysine salt) at dosages of 24, 90, or 240 mg/kg (free acid, molar equivalent to 19, 71, or 190 mg/kg of parent IVa, respectively) and the toxicokinetics of lab and IVa (4). Iab was administered to two female dogs/group once daily either as an aqueous solution (24 or 90 mg/kg) or dry-filled capsules (24, 90 [once and twice daily] or 240 mg/kg). The endpoints were: clinical signs, body weight, food consumption, and plasma toxicokinetics of lab and IVa. In all cases, a 1-week washout period was used between doses for all phases of the study. […]
On day 1, Icb was administered to one dog/sex/group once daily in dry-filled capsules at the above dosages. A 1-week washout period was used between doses in the study. On day 8, Icb was administered to one dog/sex/group once daily as an aqueous solution at 25 mg/kg or twice daily in dry-filled capsules at 46 or 125 mg/kg BID.

[3] = Single-dose oral toxicokinetic study of prodrugs in rats; format: in vivo, rat; settings: for concentration at 24 h / Cmax / AUC: male, CD, rat, plasma; for concentration at 24 h: oral, read-out: C24 h; for Cmax / AUC: po
Procedure: A 1-day oral toxicokinetic study in rats was conducted using the prodrug Iab (monolysine salt). Iab was administered at dosages of 16, 72, and 267 mg/kg (free acid) by oral gavage to three male rats/group using water as the vehicle (solution formulation). The dosages of prodrug free acid correspond to IVa (parent) molar equivalent dosages of 13, 57, and 211 mg/kg, respectively. The endpoint evaluated was plasma toxicokinetics of Iab and IVa in the individual rats.
A 1-day oral toxicokinetic study in rats was conducted by using the prodrug Ibb (monolysine salt). Ibb was administered at dosages of 19, 64, and 236 mg/kg (free acid) by oral gavage to three male rats/group using water as the vehicle (solution formulation).
A 1-day oral toxicokinetic study in rats was conducted using the prodrug Icb (disodium salt). Icb was administered at dosages of 5, 25, and 200 mg/kg (free acid) by oral gavage to three male rats/group using water as the vehicle (solution formulation).

[4] = female, 25 mg/kg, dog 2201F, day 8, Icb 25 mg/kg QD aqueous solution
[5] = female, po, 25 mg/kg, dog 2201F, day 1, Icb 25 mg/kg (IVc equiv. 20) QD dry-filled capsules
[6] = female, po, 46 mg/kg, dog 3201F, day 8, Icb 46 mg/kg BID dry-filled capsules
[7] = female, po, 92 mg/kg, dog 3201F, day 1, Icb 92 mg/kg (IVc equiv. 75) QD dry-filled capsules
[8] = female, po, 125 mg/kg, dog 4201F, day 8, Icb 125 mg/kg BID dry-filled capsules, emesis
[9] = female, po, 250 mg/kg, dog 4201F, day 1, Icb 250 mg/kg (IVc equiv. 203) QD dry-filled capsules, emesis
[10] = male, 25 mg/kg, dog 2101M, day 8, Icb 25 mg/kg QD aqueous solution
[11] = male, po, 25 mg/kg, dog 2101M, day 1, Icb 25 mg/kg (IVc equiv. 20) QD dry-filled capsules
[12] = male, po, 46 mg/kg, dog 3101M, day 8, Icb 46 mg/kg BID dry-filled capsules
[13] = male, po, 92 mg/kg, dog 3101M, day 1, Icb 92 mg/kg (IVc equiv. 75) QD dry-filled capsules, emesis
[14] = male, po, 125 mg/kg, dog 4101M, day 8, Icb 125 mg/kg BID dry-filled capsules, emesis
[15] = male, po, 250 mg/kg, dog 4101M, day 1, Icb 250 mg/kg (IVc equiv. 203) QD dry-filled capsules, emesis

COc1cnc(-n2cnc(C)n2)c2[nH]cc(C(=O)C(=O)N3CCN(C(=O)c4ccccc4)CC3)c12 [IVc]
AUCtot ([1]; PO IVc 5 mg/kg, historical IVc): 111 ± 25 µM·h | bioavailability ([1]; Sprague-Dawley, plasma, historical parent, PO 5 mg/kg, read-out: Bioavailability (%)): 82% | Tmax ([1]; Sprague-Dawley, plasma, historical parent, PO 5 mg/kg, read-out: Tmax (hr), PO): 4 h | bioavailability ([1]; male, Sprague-Dawley, plasma, oral prodrug, calculated from historical IV data of parent, read-out: Bioavailability (%) of parent from prodrug): 80% | bioavailability ([1]; male, Sprague-Dawley, plasma, oral, […], read-out: Bioavailability): 80% | Tmax ([1]; male, Sprague-Dawley, plasma, parent after oral prodrug (~5-6 mg/kg parent equivalent), read-out: Tmax (hr), PO): 0.8 h | Tmax ([1]; male, Sprague-Dawley, plasma, po, […], read-out: Tmax): 0.8 ± 0.3 h | AUC ([1]; plasma, iv, 1 mg/kg, read-out: AUCtot): 27 ± 4 µM·h | MRT ([1]; plasma, iv, 1 mg/kg, read-out: MRT): 4.5 ± 0.77 h | Vd ([1]; plasma, iv, 1 mg/kg, read-out: Vdss): 0.36 ± 0.098 L/kg | concentration at 24 hr ([1]; plasma, oral, 5 mg/kg, read-out: C-24 hr): 190 ± 48 nM | bioavailability ([1]; plasma, po, 5 mg/kg, read-out: Bioavailability): 82% | Cmax ([1]; plasma, po, 5 mg/kg, read-out: Cmax): 13 ± 3.6 µM | Tmax ([1]; plasma, po, 5 mg/kg, read-out: Tmax): 4 h | bioavailability ([1]; plasma, po, range over rats, dogs and monkeys, read-out: oral bioavailabilities of parent after administration of prodrug): 80 to 122% | time post-second dose at which mean Cmax of parent was achieved ([2]; dogs, BID dosing of prodrug): 1 to 2 h | time post-dose at which mean Cmax of parent was achieved ([2]; dogs, once daily (QD) dosing of prodrug): 1 to 2 h | AUC(0-inf) [2, 4]: 173 µM·h | concentration at 24 h [2, 4]: 107 nM | concentration at 24 h ([2]; female, oral, 25 mg/kg, dog 2201F, day 1, Icb 25 mg/kg (IVc equiv. 20) QD dry-filled capsules): 688 nM | Cmax ([2]; female, oral, 25 mg/kg, dog 2201F, day 8, Icb 25 mg/kg QD aqueous solution): 46.8 µM | concentration at 24 h ([2]; female, oral, 46 mg/kg, dog 3201F, day 8, Icb 46 mg/kg BID dry-filled capsules): 307 nM | concentration at 24 h ([2]; female, oral, 92 mg/kg, dog 3201F, day 1, Icb 92 mg/kg (IVc equiv. 75) QD dry-filled capsules): 202 nM | concentration at 24 h ([2]; female, oral, 125 mg/kg, dog 4201F, day 8, Icb 125 mg/kg BID dry-filled capsules): 1960 nM | concentration at 24 h ([2]; female, oral, 250 mg/kg, dog 4201F, day 1, Icb 250 mg/kg (IVc equiv. 203) QD dry-filled capsules): 704 nM | AUC(0-inf) [2, 5]: 122 µM·h | Cmax [2, 5]: 24.6 µM | AUC(0-inf) [2, 6]: 490 µM·h | Cmax [2, 6]: 104 µM | AUC(0-inf) [2, 7]: 730 µM·h | Cmax [2, 7]: 157 µM | AUC(0-inf) [2, 8]: 596 µM·h | Cmax [2, 8]: 96.9 µM | AUC(0-inf) [2, 9]: 523 µM·h | Cmax [2, 9]: 88.9 µM | AUC(0-inf) [2, 10]: 362 µM·h | concentration at 24 h [2, 10]: 547 nM | concentration at 24 h ([2]; male, oral, 25 mg/kg, dog 2101M, day 1, Icb 25 mg/kg (IVc equiv. 20) QD dry-filled capsules): 8 nM | Cmax ([2]; male, oral, 25 mg/kg, dog 2101M, day 8, Icb 25 mg/kg QD aqueous solution): 59.4 µM | concentration at 24 h ([2]; male, oral, 46 mg/kg, dog 3101M, day 8, Icb 46 mg/kg BID dry-filled capsules): 10600 nM | concentration at 24 h ([2]; male, oral, 92 mg/kg, dog 3101M, day 1, Icb 92 mg/kg (IVc equiv. 75) QD dry-filled capsules): 1900 nM | concentration at 24 h ([2]; male, oral, 125 mg/kg, dog 4101M, day 8, Icb 125 mg/kg BID dry-filled capsules): 54200 nM | concentration at 24 h ([2]; male, oral, 250 mg/kg, dog 4101M, day 1, Icb 250 mg/kg (IVc equiv. 203) QD dry-filled capsules): 2610 nM | AUC(0-inf) [2, 11]: 365 µM·h | Cmax [2, 11]: 65.1 µM | AUC(0-inf) [2, 12]: 1140 µM·h | Cmax [2, 12]: 121 µM | AUC(0-inf) [2, 13]: 820 µM·h | Cmax [2, 13]: 117 µM | AUC(0-inf) [2, 14]: 3780 µM·h | Cmax [2, 14]: 226 µM | AUC(0-inf) [2, 15]: 739 µM·h | Cmax [2, 15]: 92.6 µM | concentration at 24 h ([3]; 5 mg/kg): 29 nM | concentration at 24 h ([3]; 25 mg/kg): 350 nM | concentration at 24 h ([3]; 200 mg/kg): 58000 nM | Cmax ([3]; 5 mg/kg): 29 µM | AUC ([3]; 5 mg/kg, read-out: AUC from zero to ∞): 109 µM·h | Cmax ([3]; 25 mg/kg): 98 µM | AUC ([3]; 25 mg/kg, read-out: AUC from zero to ∞): 586 µM·h | AUC ([3]; 200 mg/kg): 2920 µM·h | Cmax ([3]; 200 mg/kg): 281 µM | time post-dose at which mean maximum plasma concentration (Cmax) was achieved ([3]; rats, single oral dose of prodrug): ≤ 1.7 h
